How the values were obtained:
[1] = molecular target: T1, Type-2 angiotensin II receptor (Homo sapiens, UniProt P50052); type: cell-based; conditions: cho-k1; also: in other assays of this panel Not Active means under 50% inhibition at 10 µM
T1 sequence (P50052 whole entry): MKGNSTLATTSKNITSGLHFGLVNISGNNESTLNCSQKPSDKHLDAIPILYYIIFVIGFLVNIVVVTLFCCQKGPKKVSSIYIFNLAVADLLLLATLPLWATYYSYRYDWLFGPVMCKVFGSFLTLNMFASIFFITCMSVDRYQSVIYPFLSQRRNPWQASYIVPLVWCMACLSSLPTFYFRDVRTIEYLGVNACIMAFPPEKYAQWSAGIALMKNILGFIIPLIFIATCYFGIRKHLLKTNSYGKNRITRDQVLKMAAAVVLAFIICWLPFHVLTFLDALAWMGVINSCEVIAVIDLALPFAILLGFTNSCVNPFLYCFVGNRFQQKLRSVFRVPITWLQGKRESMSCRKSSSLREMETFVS

[2] = molecular target: Receptor tyrosine-protein kinase erbB-2 (Homo sapiens, UniProt P04626); experiment: biochemical; type: cell-based, Insect cells; conditions: insect cells;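 also: inhibition of HER2 kinase enzyme activity, measured with Poly(Glu:Tyr) as the phosphorylation substrate; in other assays of this panel Not Active means under 50% inhibition at 10 µM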
Chain of Receptor tyrosine-protein kinase erbB-2 (P04626 whole entry): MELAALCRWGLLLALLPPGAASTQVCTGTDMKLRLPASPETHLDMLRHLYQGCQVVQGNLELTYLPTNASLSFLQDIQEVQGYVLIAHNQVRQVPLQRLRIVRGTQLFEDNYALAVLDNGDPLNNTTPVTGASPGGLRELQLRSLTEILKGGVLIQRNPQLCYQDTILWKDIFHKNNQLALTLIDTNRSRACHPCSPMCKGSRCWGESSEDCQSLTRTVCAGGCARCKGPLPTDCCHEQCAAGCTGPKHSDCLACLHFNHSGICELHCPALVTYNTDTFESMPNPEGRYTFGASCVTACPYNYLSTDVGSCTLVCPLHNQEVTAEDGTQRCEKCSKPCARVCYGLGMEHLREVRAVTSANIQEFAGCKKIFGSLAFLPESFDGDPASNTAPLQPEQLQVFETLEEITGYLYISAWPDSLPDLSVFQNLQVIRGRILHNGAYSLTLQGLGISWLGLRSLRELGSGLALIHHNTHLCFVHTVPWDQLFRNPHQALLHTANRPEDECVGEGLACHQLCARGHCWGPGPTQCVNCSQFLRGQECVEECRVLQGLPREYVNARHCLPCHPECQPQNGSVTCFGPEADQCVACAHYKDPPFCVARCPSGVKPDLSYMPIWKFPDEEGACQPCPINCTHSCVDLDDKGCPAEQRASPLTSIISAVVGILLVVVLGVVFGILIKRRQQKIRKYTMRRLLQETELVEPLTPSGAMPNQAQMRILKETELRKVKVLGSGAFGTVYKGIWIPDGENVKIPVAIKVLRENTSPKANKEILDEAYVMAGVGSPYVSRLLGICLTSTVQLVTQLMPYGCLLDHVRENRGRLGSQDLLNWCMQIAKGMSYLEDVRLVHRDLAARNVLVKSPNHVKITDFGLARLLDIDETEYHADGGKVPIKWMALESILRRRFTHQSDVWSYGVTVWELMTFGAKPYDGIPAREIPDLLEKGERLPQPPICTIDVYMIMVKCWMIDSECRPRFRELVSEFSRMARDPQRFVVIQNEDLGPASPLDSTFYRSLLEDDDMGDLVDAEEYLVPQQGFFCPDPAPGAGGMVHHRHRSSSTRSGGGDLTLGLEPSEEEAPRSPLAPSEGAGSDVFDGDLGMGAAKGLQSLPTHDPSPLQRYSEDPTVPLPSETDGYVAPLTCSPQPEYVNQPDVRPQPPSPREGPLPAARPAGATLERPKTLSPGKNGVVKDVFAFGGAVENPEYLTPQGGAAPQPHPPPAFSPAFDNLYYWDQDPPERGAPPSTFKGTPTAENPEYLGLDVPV

Nitric oxide synthase 1 = Nitric oxide synthase 1 (Rattus norvegicus, UniProt P29476); type: tissue-based, Cerebellum; also: in other assays of this panel Not Active means under 50% inhibition at 10 µM
Chain of Nitric oxide synthase 1 (P29476 whole entry): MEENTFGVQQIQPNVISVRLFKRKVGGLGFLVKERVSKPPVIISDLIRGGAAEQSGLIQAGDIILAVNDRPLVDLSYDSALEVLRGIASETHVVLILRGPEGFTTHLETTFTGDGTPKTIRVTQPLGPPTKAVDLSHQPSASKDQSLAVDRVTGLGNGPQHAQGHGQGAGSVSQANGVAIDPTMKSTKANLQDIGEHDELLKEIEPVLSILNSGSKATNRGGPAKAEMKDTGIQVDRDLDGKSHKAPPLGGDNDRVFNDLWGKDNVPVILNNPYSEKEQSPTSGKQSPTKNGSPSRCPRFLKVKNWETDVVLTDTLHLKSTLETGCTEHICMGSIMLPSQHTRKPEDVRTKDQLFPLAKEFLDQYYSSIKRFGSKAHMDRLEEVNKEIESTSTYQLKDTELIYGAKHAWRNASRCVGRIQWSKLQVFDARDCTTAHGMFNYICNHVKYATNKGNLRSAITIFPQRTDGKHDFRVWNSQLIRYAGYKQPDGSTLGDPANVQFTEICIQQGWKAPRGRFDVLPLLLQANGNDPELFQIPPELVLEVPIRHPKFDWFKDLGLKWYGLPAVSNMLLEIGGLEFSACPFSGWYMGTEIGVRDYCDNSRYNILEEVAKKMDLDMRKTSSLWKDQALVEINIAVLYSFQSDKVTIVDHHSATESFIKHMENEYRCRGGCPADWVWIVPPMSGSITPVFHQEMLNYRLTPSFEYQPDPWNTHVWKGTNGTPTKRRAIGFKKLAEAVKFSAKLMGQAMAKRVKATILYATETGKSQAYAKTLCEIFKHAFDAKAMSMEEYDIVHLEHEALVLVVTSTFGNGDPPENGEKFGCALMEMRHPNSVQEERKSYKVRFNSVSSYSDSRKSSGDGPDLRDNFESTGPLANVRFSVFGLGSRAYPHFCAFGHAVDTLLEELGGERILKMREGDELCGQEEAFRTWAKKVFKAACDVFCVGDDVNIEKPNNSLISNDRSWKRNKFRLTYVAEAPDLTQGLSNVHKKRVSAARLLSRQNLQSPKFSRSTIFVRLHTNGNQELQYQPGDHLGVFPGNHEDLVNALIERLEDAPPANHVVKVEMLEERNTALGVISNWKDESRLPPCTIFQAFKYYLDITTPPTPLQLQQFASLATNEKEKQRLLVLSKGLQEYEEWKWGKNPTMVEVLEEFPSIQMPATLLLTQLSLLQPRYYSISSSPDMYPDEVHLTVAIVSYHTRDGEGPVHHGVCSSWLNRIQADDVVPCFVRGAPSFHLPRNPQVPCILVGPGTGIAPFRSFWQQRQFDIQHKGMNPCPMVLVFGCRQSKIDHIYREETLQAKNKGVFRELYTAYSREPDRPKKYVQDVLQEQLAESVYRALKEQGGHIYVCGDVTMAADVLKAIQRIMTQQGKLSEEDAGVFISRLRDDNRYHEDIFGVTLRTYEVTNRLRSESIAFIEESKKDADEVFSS

[3] = molecular target: Vascular endothelial growth factor receptor 1 (Homo sapiens, UniProt P17948); type: cell-based; conditions: huvec; also: in other assays of this panel Not Active means under 50% inhibition at 10 µM
Chain of Vascular endothelial growth factor receptor 1 (P17948 whole entry): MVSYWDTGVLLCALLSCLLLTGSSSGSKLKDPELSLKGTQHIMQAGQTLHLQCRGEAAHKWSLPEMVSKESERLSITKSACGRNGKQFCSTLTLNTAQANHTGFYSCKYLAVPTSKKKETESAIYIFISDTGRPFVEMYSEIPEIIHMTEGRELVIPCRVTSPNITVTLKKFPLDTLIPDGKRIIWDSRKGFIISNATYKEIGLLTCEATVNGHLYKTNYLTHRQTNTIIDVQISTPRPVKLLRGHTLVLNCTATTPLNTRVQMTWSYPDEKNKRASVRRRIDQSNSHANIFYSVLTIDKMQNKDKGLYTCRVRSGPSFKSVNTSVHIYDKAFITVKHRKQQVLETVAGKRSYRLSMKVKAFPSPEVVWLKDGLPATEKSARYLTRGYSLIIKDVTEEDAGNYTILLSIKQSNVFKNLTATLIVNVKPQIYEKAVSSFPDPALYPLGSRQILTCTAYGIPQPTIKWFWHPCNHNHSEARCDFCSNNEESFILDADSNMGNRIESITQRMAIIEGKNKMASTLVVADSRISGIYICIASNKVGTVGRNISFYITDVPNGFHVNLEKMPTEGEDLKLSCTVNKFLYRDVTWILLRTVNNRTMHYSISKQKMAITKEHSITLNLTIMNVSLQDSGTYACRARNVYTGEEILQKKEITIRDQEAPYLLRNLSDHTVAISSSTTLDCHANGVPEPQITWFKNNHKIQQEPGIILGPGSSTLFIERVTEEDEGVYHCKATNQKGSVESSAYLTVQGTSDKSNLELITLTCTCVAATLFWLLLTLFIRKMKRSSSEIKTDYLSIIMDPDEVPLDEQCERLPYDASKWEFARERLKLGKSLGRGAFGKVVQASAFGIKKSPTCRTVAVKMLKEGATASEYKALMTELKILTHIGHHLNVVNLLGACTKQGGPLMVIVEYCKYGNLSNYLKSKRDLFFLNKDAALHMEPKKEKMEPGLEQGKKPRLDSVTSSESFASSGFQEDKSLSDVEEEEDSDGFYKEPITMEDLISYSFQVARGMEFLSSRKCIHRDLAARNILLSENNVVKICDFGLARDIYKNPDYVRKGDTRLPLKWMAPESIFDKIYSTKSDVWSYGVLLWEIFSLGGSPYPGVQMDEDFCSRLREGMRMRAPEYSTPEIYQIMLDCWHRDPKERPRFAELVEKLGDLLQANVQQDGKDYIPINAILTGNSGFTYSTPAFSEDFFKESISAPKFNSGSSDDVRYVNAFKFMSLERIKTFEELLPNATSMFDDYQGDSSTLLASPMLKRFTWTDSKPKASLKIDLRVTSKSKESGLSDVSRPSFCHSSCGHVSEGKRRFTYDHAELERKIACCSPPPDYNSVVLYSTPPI

[4] = DRUGMATRIX: Phosphodiesterase PDE4 enzyme inhibition (substrate: [3H]cAMP + cAMP); conditions: u-937; Not Active = under 50% inhibition at 10 µM
[5] = DRUGMATRIX: Imidazoline I2, Central radioligand binding (ligand: [3H] Idazoxan); type: cell membranes, Rattus norvegicus, Wistar, Cerebral cortex, Membrane; conditions: Not Active = under 50% inhibition at 10 µM
[6] = DRUGMATRIX: Leukotriene, BLT (LTB4) radioligand binding (ligand: [3H]LTB4); type: cell membranes, Membrane; conditions: u-937; Not Active = under 50% inhibition at 10 µM

Cc1oncc1C(=O)Nc1ccc(C(F)(F)F)cc1 [LEFLUNOMIDE]
Not Active: IC50 [1] | IC50 [2] | IC50 (Nitric oxide synthase 1) | IC50 [3] | IC50 [4] | Ki [4] | IC50 [5] | Ki [5] | IC50 [6] | Ki [6]

N#CC(C#N)=Cc1ccc(O)c(O)c1 [TYRPHOSTIN 23]
Not Active: IC50 [1] | IC50 [2] | IC50 (Nitric oxide synthase 1) | IC50 [3] | IC50 [4] | Ki [4] | IC50 [5] | Ki [5] | IC50 [6] | Ki [6]
